Experimental findings from ChEMBL document CHEMBL1157077, “Gneyulins A and B, stilbene trimers, and noidesols A and B, dihydroflavonol-C-glucosides, from the bark of Gnetum gnemonoides” (J Nat Prod, 2010) are described below.

The structures appear in SMILES notation. pIC50: −log10 of the molar value.

Assay [1] deals with T1, Sodium/glucose cotransporter 1 (Homo sapiens, UniProt P13866).
T1 sequence (P13866 whole entry): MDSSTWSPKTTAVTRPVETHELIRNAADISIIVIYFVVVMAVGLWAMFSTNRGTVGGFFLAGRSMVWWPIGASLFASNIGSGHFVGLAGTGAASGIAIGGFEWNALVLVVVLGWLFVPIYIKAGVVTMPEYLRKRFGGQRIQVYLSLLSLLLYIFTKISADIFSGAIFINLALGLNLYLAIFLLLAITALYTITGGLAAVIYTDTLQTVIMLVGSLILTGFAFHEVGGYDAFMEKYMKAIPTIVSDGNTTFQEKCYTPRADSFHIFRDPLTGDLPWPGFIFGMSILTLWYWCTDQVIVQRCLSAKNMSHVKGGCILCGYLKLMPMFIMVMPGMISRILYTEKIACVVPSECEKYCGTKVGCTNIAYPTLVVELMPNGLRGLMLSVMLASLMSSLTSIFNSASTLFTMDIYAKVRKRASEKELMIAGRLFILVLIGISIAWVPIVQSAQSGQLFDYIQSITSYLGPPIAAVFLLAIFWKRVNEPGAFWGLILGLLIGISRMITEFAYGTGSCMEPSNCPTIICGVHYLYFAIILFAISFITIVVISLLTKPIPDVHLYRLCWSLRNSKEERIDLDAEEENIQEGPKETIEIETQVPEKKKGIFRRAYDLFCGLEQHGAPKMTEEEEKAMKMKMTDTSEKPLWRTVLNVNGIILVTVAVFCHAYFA
Kind of assay: Inhibition of SGLT1 transfected in african green monkey COS1 cells assessed as alpha-D-[U-14C]glucopyranoside uptake after 30 mins by scintillation counting. In kind it is cell-based, COS-1. To be noted: for IC50: cos-1; for pIC50: read-out: IC50.

Assay [2] deals with T2, Sodium/glucose cotransporter 2 (Homo sapiens, UniProt P31639).
T2 sequence (P31639 whole entry): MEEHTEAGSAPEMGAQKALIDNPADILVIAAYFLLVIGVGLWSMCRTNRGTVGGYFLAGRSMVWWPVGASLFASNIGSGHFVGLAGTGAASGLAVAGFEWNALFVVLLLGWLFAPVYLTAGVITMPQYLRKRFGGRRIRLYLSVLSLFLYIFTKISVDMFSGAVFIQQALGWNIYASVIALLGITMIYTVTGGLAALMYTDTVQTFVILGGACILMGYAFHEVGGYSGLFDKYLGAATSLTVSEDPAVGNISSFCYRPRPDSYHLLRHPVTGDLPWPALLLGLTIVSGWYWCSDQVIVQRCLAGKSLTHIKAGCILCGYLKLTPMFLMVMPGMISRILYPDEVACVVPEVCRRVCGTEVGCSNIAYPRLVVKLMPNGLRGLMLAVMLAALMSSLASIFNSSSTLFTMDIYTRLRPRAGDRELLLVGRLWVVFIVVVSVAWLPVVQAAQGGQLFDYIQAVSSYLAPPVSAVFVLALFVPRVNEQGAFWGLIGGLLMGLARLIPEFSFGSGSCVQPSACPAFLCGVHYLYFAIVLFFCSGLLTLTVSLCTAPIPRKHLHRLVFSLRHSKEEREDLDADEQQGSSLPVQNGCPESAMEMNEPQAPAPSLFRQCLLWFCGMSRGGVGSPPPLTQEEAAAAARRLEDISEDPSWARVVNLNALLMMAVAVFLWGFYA
In words: Inhibition of SGLT2 transfected in african green monkey COS1 cells assessed as alpha-D-[U-14C]glucopyranoside uptake after 30 mins by scintillation counting. In kind it is cell-based, COS-1. To be noted: for IC50: cos-1; for pIC50: read-out: IC50.

Regarding `COc1cc(O)c2c(c1[C@@H]1O[C@H](CO)[C@@H](O)[C@H](O)[C@H]1O)O[C@H](c1ccc(O)c(O)c1)[C@@H](O)C2=O` [NOIDESOL A], the IC50 entry in assay [1] and in assay [2] was “Not Active” throughout.

As to `Oc1cc(O)cc([C@@H]2c3cc([C@@H]4Oc5cc(-c6cc7ccc(O)cc7o6)cc(O)c5[C@H]4c4cc(O)cc(O)c4)c(O)cc3O[C@H]2c2ccc(O)cc2O)c1` [GNEYULIN B], the pIC50 was 4.43 in assay [1] and 4.74 in assay [2].

Turning to `COc1ccc([C@H]2Oc3cc(O)c([C@@H]4O[C@H](CO)[C@@H](O)[C@H](O)[C@H]4O)c(O)c3C(=O)[C@@H]2O)cc1O` [NOIDESOL B], the IC50 entry in assay [1] and in assay [2] was “Not Active” in each case.

Consider `Oc1cc(O)cc([C@@H]2c3cc([C@@H]4Oc5cc(/C=C/c6ccc(O)cc6O)cc(O)c5[C@H]4c4cc(O)cc(O)c4)c(O)cc3O[C@H]2c2ccc(O)cc2O)c1` [GNEYULIN A], for which the results for the pIC50 in assay [1] and in assay [2] were 4.57 and 4.60, respectively.

Broadly, the pIC50 is the negative decadic logarithm of the IC50, by convention in mol/L.
